Source: patent US7429612B2, “Indoline compound and medicinal use thereof” (Kyoto Pharmaceutical Industries, Ltd., priority 2002, dated 2008)
Counter-ions that a name gives are not always drawn.

Key:
hepatic ACAT = experiment: Hepatic ACAT inhibitory activity (rabbit liver microsomes, [1-14C]-oleoyl CoA); format: biochemical, Japanese white rabbits; conditions: Concentration: 10^-6 M; inhibition of cholesteryl oleate production vs control
Experimental: A high cholesterol feed [a feed added with cholesterol (1%), Clea Japan, Inc.] was fed to male Japanese white rabbits weighing 2-2.5 kg at 100 g per day and the rabbits were bred for 4 weeks. The rabbits were killed by bleeding under anesthesia and liver was removed. The liver was homogenated, and the homogenate was centrifuged at 4° C. and 10,000 rpm for 15 min. The obtained supernatant was further centrifuged at 4° C. and 41,000 rpm for 60 minutes to give microsomal fractions. The microsomal suspension as an enzyme sample, dimethyl sulfoxide (DMSO, […]) or a test compound dissolved in DMSO (test compound solution 3 μl), and reaction substrate [1-^14C]-oleoyl CoA were added to 0.15 M phosphate buffer to the total amount of 300 μl. After incubation at 37° C. for 20 minutes, a chloroform-methanol mixture was added to stop the reaction. Water was added thereto and mixed, and the chloroform layer was separated. The solvent was evaporated to dryness, and the residue was redissolved in n-hexane. The mixture was subjected to thin layer chromatography using a silica gel plate. The spots of cholesteryl oleate on the silica gel plate were scraped, and quantitatively assayed on lo a liquid scintillation counter.

[1] = system: THP-1 cell-derived macrophages; experiment: THP-1 cell-derived macrophage foam cell formation suppressing effect (cholesterol ester accumulation inhibitory effect); format: cell-based; conditions: Concentration: 10^-6 M, acetyl LDL, 3 days culture; for inhibition at 1 µM: Homo sapiens, THP-1, 72 h, read-out: foam cell formation inhibitory rate (%)
Experimental: THP-1 (Dainippon Pharmaceutical Co., Ltd.) cells were passage cultured in RPMI-1640 medium supplemented with 10% fetal bovine serum (FBS), and the cells of passages 6-13 after purchase were used. The cells were suspended in FBS-containing RPMI-1640 medium to give a suspension having a concentration of 4×10^5 cells/mL. The cell suspension was inoculated to a 12 well microplate by 1 mL, and treated with phorbol 12-myristate 13-acetate (PMA, 200 nM) as a differentiation inducing agent into macrophage. Then acetyl LDL 400 μg/mL prepared separately from plasma-derived LDL of genetically hyperlipidemia rabbit (KHC rabbit, Japan Laboratory Animals, Inc.) was added. In addition, a test compound dissolved in DMSO and diluted with FBS-containing RPMI-1640 medium or a control solvent was added. After culture in a carbon dioxide incubator for 3 days, the cells were washed with phosphate buffered physiological saline (pH 7.0), and the lipid was extracted with n-hexane/isopropanol (3:2). The cells were dissolved in 1M-NaOH and the protein amount was measured. The free cholesterol and cholesterol ester in a lipid extraction sample was measured by the method of Kunitomo et al. (1983). The cholesterol ester was compared between the control cell and the test compound-treated cells, and the cholesterol ester accumulation inhibitory rate of the test compound was calculated.

Compound | Hepatic ACAT inhibitory ratio (%) (hepatic ACAT) | inhibition at 1 µM [1] | foam cell formation inhibitory rate (%) [1]
CCCCCCCCN1CCc2c(C)c([N+](=O)[O-])c(C)c(NC(=O)C(C)(C)C)c21 [Example 1, N-(4,6-dimethyl-5-nitro-1-octylindolin-7-yl)-2,2-dimethylpropanamide] | 97.4% |  | 
CCCCCCCCN1CCc2c(C)c(NS(=O)(=O)NC(C)=O)c(C)c(NC(=O)C(C)(C)C)c21 [Example 3, N-[5-(N-acetylsulfamoylamino)-4,6-dimethyl-1-octylindolin-7-yl]-2,2-dimethylpropanamide] | 89.3% |  | 
CCCCCCCCN1CCc2c(C)c(NS(=O)(=O)NC(=O)OC)c(C)c(NC(=O)C(C)(C)C)c21 [Example 4, N-[5-(N-methoxycarbonylsulfamoylamino)-4,6-dimethyl-1-octylindolin-7-yl]-2,2-dimethylpropanamide] | 75.8% |  | 
CCCCCCCCN1CCc2c(C)c(NS(N)(=O)=O)c(C)c(NC(=O)C(C)(C)C)c21.Cl [Example 6, N-(4,6-dimethyl-1-octyl-5-sulfamoylaminoindolin-7-yl)-2,2-dimethylpropanamide hydrochloride] | 97.4% | 91.2% | 
CCCCCCCCN1CCc2c(C)c(NC(N)=O)c(C)c(NC(=O)C(C)(C)C)c21.Cl [Example 7, N-(4,6-dimethyl-1-octyl-5-ureidoindolin-7-yl)-2,2-dimethylpropanamide hydrochloride] | 95.7% | 90.9% | 
CCCCCCCCCC(C)(C)C(=O)Nc1c(C)c2c(c(NS(C)(=O)=O)c1C)NCC2 [Example 8, N-(7-methanesulfonylamino-4,6-dimethylindolin-5-yl)-2,2-dimethylundecanamide] | 96.3% | 89.2% | 
CCCCCCCCCC(C)(C)C(=O)Nc1c(C)c2c(c(NS(C)(=O)=O)c1C)N(C)CC2 [Example 9, N-(7-methanesulfonylamino-1,4,6-trimethylindolin-5-yl)-2,2-dimethylundecanamide] |  | 70.9% | 
CCCCCCCCN1CCc2c(C)c(CNS(C)(=O)=O)c(C)c(NC(=O)C(C)(C)C)c21.Cl [Example 10, N-(5-methanesulfonylaminomethyl-4,6-dimethyl-1-octylindolin-7-yl)-2,2-dimethylpropanamide hydrochloride] | 87.3% |  | 
CCCCN1CCc2c(C)c(NS(N)(=O)=O)c(C)c(NC(=O)C(C)(C)C)c21.Cl [Example 19, N-(1-butyl-4,6-dimethyl-5-sulfamoylaminoindolin-7-yl)-2,2-dimethylpropanamide hydrochloride] | 93.4% | 73.3% | 
Cc1c2c(c(NC(=O)C(C)(C)C)c(C)c1NS(N)(=O)=O)N(CCC(C)C)CC2.Cl [Example 20, N-[1-(3-methylbutyl)-4,6-dimethyl-5-sulfamoylaminoindolin-7-yl]-2,2-dimethylpropanamide hydrochloride] | 95.7% | 74.7% | 
Cc1c2c(c(NC(=O)C(C)(C)C)c(C)c1NS(N)(=O)=O)N(CC(C)C)CC2.Cl [Example 21, N-[1-(2-methylpropyl)-4,6-dimethyl-5-sulfamoylaminoindolin-7-yl]-2,2-dimethylpropanamide hydrochloride] | 92.7% | 77.1% | 
CCCCCCCCCC(C)(C)C(=O)Nc1c(C)c2c(c(NS(=O)(=O)C(C)C)c1C)NCC2.Cl [Example 23, N-[4,6-dimethyl-7-(2-propanesulfonylamino)indolin-5-yl]-2,2-dimethylundecanamide hydrochloride] | 96.2% | 90.5% | 
CCCCCCC(C)(C)C(=O)Nc1c(C)c2c(c(NS(=O)(=O)C(C)C)c1C)NCC2 [Example 24, N-[4,6-dimethyl-7-(2-propanesulfonylamino)indolin-5-yl]-2,2-dimethyloctanamide] | 95.7% | 90.5% | 
CCCCCCCCCC(C)(C)C(=O)Nc1c(C)c2c(c(NS(=O)(=O)c3ccc(C)cc3)c1C)NCC2 [Example 25, N-[4,6-dimethyl-7-(p-toluene)sulfonylaminoindolin-5-yl]-2,2-dimethylundecanamide] | 94.3% |  | 89.4%
CCCCCCCCCC(C)(C)C(=O)Nc1c(C)c2c(c(NS(N)(=O)=O)c1C)NCC2.Cl [Example 26, N-(4,6-dimethyl-7-sulfamoylaminoindolin-5-yl)-2,2-dimethylundecanamide hydrochloride] | 95.4% | 75.3% | 
CCCCCCCCCC(C)(C)C(=O)Nc1c(C)c2c(c(NC(N)=O)c1C)NCC2 [Example 27, N-(4,6-dimethyl-7-ureidoindolin-5-yl)-2,2-dimethylundecanamide] | 78.6% |  | 
CCCCCCCCS(=O)(=O)Nc1c(C)c(NC(=O)C(C)(C)C)c(C)c2c1NCC2 [Example 29, N-[4,6-dimethyl-7-(1-octanesulfonylamino)indolin-5-yl]-2,2-dimethylpropanamide] | 79.5% |  | 
Cc1c2c(c(NC(=O)C(C)(C)C)c(C)c1NS(N)(=O)=O)N(C1CCCC1)CC2.Cl [Example 43, N-(1-cyclopentyl-4,6-dimethyl-5-sulfamoylaminoindolin-7-yl)-2,2-dimethylpropanamide hydrochloride] | 90.9% | 58.7% | 
CCOCCN1CCc2c(C)c(NS(N)(=O)=O)c(C)c(NC(=O)C(C)(C)C)c21.Cl [Example 46, N-[1-(2-ethoxyethyl)-4,6-dimethyl-5-sulfamoylaminoindolin-7-yl]-2,2-dimethylpropanamide hydrochloride] | 89.2% | 59.1% | 
CCCN1c2c(c(C)c(NS(N)(=O)=O)c(C)c2NC(=O)C(C)(C)C)CC1COC.Cl (stereo not shown) [Example 50, N-(2-methoxymethyl-4,6-dimethyl-1-propyl-5-sulfamoylaminoindolin-7-yl)-2,2-dimethylpropanamide hydrochloride] | 86.2% | 73.6% | 
CCCN1c2c(c(C)c(NS(N)(=O)=O)c(C)c2NC(=O)C(C)(C)C)CC1COCC (stereo not shown) [Example 51, N-(2-ethoxymethyl-4,6-dimethyl-1-propyl-5-sulfamoylaminoindolin-7-yl)-2,2-dimethylpropanamide hydrochloride] |  | 86% | 
CCOCCN1c2c(c(C)c(NS(N)(=O)=O)c(C)c2NC(=O)C(C)(C)C)CC1C (stereo not shown) [Example 54, N-[1-(2-ethoxyethyl)-2,4,6-trimethyl-5-sulfamoylaminoindolin-7-yl]-2,2-dimethylpropanamide hydrochloride] |  | 64.5% | 
CCSCCN1CCc2c(C)c(NS(N)(=O)=O)c(C)c(NC(=O)C(C)(C)C)c21.Cl [Example 60, N-[1-(2-ethylthioethyl)-4,6-dimethyl-5-sulfamoylaminoindolin-7-yl]-2,2-dimethylpropanamide hydrochloride] | 97.2% |  | 
CSCCN1CCc2c(C)c(NS(N)(=O)=O)c(C)c(NC(=O)C(C)(C)C)c21.Cl [Example 61, N-[4,6-dimethyl-1-(2-methylthioethyl)-5-sulfamoylaminoindolin-7-yl]-2,2-dimethylpropanamide hydrochloride] | 95.4% |  | 
